Measurements: paper PMC9434702 (Journal of medicinal chemistry, 2022)

Legend:
mGluR2 [1] = biological target: mGluR2 (Rattus norvegicus, UniProt P31421); test: Pretreatment; type: in vivo, Sprague–Dawley rats
mGluR2 [2] = biological target: T1, mGluR2 (Homo sapiens, UniProt Q14416); details: mGluR2 NAM; cited from earlier work
[3] = rat; cited from earlier work
[4] = rat brain; cited from earlier work
Rat plasma stability = type: in vitro ADME; details: 37 °C, peak area at 60 min vs 0 min
recombinant human Pgp = recombinant human Pgp (Homo sapiens, UniProt P08183); test: Pgp-Glo assay; type: in vitro ADME; details: 100 μM compound; change relative to Na3VO4 samples = Pgp ATPase activity
[5] = Rat liver microsome stability; type: in vitro ADME, Sprague–Dawley rat; details: NADPH, 37 °C, peak area at 60 min vs 0 min
mGluR2 [6] = biological target: T1, mGluR2
[7] = 0.5 mg/kg iv., 1 min before tracer
[8] = 0.2 mg/kg iv., 1 min before tracer
[9] = 0.2 mg/kg iv., 20 min before tracer

mGluR2 (Rattus norvegicus, UniProt P31421), sequence (P31421 19-872): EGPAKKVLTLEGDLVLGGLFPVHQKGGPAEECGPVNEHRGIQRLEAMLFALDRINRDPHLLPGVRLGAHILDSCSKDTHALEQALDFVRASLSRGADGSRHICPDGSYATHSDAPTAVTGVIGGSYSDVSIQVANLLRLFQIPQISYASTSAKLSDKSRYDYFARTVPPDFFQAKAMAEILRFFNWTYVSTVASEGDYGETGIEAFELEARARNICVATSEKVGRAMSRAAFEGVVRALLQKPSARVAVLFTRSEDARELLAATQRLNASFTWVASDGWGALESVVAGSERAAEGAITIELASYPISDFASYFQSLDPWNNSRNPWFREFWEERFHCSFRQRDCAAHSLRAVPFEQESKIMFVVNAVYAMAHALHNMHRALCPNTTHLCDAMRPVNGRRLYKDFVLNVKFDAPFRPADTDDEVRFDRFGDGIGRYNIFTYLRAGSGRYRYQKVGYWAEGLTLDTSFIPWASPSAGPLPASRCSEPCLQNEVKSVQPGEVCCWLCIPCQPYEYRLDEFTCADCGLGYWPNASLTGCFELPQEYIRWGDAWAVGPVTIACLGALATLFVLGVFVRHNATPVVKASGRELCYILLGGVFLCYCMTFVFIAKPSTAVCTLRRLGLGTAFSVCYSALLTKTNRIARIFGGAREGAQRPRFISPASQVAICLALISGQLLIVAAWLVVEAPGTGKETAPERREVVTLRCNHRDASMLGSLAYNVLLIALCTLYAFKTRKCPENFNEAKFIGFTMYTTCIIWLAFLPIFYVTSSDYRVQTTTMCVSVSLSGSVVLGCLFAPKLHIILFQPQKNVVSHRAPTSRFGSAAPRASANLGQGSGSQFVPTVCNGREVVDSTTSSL
T1 sequence (Q14416 19-872): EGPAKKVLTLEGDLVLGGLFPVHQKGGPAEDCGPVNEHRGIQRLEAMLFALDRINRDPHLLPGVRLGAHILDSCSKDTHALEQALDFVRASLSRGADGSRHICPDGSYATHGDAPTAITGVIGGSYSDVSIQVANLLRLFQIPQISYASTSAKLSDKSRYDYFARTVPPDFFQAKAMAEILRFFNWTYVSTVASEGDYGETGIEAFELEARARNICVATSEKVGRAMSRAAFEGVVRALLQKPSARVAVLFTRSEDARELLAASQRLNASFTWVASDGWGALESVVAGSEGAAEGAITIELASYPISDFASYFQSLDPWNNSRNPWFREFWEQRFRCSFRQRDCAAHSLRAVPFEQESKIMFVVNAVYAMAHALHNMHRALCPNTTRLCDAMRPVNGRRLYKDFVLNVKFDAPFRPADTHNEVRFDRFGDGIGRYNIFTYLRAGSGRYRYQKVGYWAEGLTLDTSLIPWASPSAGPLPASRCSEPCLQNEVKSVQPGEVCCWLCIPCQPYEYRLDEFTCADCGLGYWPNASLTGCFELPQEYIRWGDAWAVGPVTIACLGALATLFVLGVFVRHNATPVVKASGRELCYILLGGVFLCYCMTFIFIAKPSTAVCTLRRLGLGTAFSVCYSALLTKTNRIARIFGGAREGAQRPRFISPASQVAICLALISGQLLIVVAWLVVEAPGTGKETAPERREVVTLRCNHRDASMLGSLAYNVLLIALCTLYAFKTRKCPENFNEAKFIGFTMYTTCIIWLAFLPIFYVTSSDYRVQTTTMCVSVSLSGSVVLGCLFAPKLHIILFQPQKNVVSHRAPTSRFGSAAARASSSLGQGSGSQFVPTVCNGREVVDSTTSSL
recombinant human Pgp, sequence (P08183 whole entry): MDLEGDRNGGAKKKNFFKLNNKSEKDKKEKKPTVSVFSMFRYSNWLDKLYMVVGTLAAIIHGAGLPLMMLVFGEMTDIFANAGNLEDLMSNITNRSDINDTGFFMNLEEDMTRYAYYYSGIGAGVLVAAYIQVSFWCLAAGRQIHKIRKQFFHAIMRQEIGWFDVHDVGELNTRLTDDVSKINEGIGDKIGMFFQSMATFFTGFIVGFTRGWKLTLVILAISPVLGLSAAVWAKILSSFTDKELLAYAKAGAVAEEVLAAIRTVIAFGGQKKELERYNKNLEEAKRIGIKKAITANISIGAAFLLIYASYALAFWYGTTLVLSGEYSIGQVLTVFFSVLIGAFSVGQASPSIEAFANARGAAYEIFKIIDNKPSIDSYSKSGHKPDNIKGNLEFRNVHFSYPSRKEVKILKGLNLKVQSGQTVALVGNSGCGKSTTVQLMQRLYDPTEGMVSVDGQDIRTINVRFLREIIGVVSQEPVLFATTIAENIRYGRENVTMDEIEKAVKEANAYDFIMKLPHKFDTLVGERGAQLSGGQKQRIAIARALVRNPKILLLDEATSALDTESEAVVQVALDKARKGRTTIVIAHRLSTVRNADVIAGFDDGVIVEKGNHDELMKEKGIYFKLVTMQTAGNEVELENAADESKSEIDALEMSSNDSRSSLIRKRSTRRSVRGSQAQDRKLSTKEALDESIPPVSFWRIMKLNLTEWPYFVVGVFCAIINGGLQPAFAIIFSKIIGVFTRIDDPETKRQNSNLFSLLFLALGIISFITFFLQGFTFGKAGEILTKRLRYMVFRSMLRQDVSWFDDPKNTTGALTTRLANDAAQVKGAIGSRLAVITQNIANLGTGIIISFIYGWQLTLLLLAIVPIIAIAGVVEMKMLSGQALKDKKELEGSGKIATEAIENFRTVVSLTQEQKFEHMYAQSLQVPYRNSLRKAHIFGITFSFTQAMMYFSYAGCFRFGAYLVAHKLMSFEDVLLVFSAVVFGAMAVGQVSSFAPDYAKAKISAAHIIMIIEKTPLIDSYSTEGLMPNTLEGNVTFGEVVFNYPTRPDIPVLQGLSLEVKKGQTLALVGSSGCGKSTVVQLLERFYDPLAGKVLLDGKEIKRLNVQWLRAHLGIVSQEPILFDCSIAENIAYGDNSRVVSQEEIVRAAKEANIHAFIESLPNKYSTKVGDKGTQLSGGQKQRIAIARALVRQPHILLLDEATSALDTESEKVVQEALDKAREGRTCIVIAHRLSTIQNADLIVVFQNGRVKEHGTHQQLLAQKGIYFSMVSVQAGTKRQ

Question: For `Cn1ccc(COc2cnc(C(N)=O)cc2-c2ccc(F)cc2)n1` [compound 9], which “decrease of [11C]13 radioactivity accumulation, average across ROIs” value (mGluR2 [1]; [7]) is on record?
Answer: The value was 22.4 ± 7.3%.

Question: And the “decrease of [11C]13 radioactivity accumulation, cortex (highest)” value (mGluR2 [1]; [7])?
Answer: The value was 38.5%.

Question: What about the “decrease of [11C]13 radioactivity accumulation, thalamus (least)” value (mGluR2 [1]; [7]) of the same compound?
Answer: Its value is 17.1%.

Question: And the “decrease of [11C]13 radioactivity accumulation, total average” value (mGluR2 [1]; 0.5 mg/kg iv., 20 min before tracer)?
Answer: Its value is 14.5 ± 1.5%.

Question: And the IC50 (mGluR2 [2])?
Answer: Its IC50 is 78 nM.

Question: What about the “half-life (t1/2)” value [3] of the same compound?
Answer: The value was 20 min.

Question: And the “plasma clearance (CLp)” value [3]?
Answer: Its value is 118 mL/min/kg.

Question: Which SUVmax [4] does the source give for `COc1ccc(-c2cc(C(N)=O)nc3cc(CN4C(=O)CCC4=O)ccc23)c(F)c1` [compound 7] here?
Answer: Its SUVmax is 0.3.

Question: For `N#Cc1cc(C2=Nc3ccc(Br)cc3NC(=O)C2)ccn1` [compound 26], which “decrease of [11C]13 radioactivity accumulation, among ROIs” value (mGluR2 [1]; [8]) is on record?
Answer: Its value is 41.7 ± 1.1%.

Question: What about the “decrease of [11C]13 radioactivity accumulation, cerebellum (least)” value (mGluR2 [1]; [8]) of the same compound?
Answer: The value was 39.6%.

Question: And the “decrease of [11C]13 radioactivity accumulation, hypothalamus (highest)” value (mGluR2 [1]; [8])?
Answer: Its value is 42.6%.

Question: What about the “decrease of [11C]13 radioactivity accumulation, average” value (mGluR2 [1]; [9]) of the same compound?
Answer: Its value is 12.7 ± 1.7%.

Question: And the “decrease of [11C]13 radioactivity accumulation, cerebellum (highest)” value (mGluR2 [1]; [9])?
Answer: The value was 15.2%.

Question: And the “decrease of [11C]13 radioactivity accumulation, striatum (lowest)” value (mGluR2 [1]; [9])?
Answer: The value was 11.1%.

Question: For `COc1ccc(-c2cc(C(N)=O)nc3c2CCC(C)(C)O3)c(F)c1` [compound 13, 5-(2-Fluoro-4-methoxyphenyl)-2,2-dimethyl-3,4-dihydro-2H-pyrano[2,3-b]pyridine-7-carboxamide], which plasma stability (Rat plasma stability) is on record?
Answer: Its plasma stability is 94.5%.

Question: What about the “luminescence change (p/s)” value (recombinant human Pgp) of the same compound?
Answer: The value was 1.53 × 10^7 p/s.

Question: What does the source list for `CC1(C)CCc2c(-c3ccc(F)cc3F)cc(C(N)=O)nc2O1` [compound 12, 5-(2,4-Difluorophenyl)-2,2-dimethyl-3,4-dihydro-2H-pyrano[2,3-b]pyridine-7-carboxamide]?
Answer: microsome stability [5]: > 92%; plasma stability (Rat plasma stability): > 92%; luminescence change (p/s) (recombinant human Pgp): 3.07 × 10^7 p/s; agonist activity at mGluR2 (mGluR2 [6]; cells induced with 1 μg/mL tetracycline, no glutamate): no agonist activity was observed; concentration at which potent NAM activity begins (mGluR2 [6]; in the presence of increasing concentrations of L-glutamate): ~30 nM
